Measurements taken from ChEMBL document CHEMBL1201862, “PubChem BioAssay data set” (2004).
Activity calls are given as the source filed them.

Legend:
[1] = target: T1, Short transient receptor potential channel 4 (Mus musculus, UniProt Q9QUQ5); experiment: block of DAMGO-driven TRPC4 calcium entry – cell-based, HEK293 TRPC4/mu-opioid, Fluo-4 calcium, dose response (AID 434942); assay type: functional;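 also: potency of inhibitors blocking the TRPC4 calcium response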
T1 sequence (Q9QUQ5 whole entry): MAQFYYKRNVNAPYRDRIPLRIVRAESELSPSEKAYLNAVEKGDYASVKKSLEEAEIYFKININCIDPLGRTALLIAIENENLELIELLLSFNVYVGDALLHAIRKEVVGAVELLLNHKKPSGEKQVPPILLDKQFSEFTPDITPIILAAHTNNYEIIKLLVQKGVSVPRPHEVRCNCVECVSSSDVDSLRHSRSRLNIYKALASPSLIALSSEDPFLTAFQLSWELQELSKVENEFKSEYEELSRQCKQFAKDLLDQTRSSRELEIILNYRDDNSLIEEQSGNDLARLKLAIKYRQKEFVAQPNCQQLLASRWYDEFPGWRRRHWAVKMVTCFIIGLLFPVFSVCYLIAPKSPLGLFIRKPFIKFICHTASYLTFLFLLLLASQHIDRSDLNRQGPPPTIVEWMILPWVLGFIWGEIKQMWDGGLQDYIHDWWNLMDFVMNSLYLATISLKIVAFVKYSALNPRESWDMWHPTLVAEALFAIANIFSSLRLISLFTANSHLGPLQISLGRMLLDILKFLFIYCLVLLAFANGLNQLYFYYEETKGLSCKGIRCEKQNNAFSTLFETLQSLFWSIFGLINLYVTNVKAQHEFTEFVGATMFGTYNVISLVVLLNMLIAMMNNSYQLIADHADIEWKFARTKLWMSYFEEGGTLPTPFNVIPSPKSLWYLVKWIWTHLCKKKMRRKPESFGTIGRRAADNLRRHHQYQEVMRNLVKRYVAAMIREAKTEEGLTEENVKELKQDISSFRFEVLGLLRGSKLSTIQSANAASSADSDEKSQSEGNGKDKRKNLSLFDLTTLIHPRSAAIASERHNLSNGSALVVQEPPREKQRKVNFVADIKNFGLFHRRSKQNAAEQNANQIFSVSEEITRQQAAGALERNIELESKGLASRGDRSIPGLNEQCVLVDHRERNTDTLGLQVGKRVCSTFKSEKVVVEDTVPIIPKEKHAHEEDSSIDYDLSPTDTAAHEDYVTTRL

[2] = target: Luciferin 4-monooxygenase (Photinus pyralis, UniProt P08659); experiment: inhibition of purified Photinus pyralis luciferase – biochemical, luminescence, dose response (AID 1891)
[3] = Luminescence Cell-Based Dose Confirmation HTS to Identify Inhibitors of Platelet Dense Granule Release. [Related pubchem assays: 1663 (Primary HTS), 1678 (Summary of Project)]; assay type: functional
Coagulation factor XII = target: T2, Coagulation factor XII (Homo sapiens, UniProt P00748); assay type: functional;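 also: activated factor XIIa alpha cleaving a fluorogenic AMC peptide substrate; inhibitor potency from loss of enzyme activity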
T2 sequence (P00748 whole entry): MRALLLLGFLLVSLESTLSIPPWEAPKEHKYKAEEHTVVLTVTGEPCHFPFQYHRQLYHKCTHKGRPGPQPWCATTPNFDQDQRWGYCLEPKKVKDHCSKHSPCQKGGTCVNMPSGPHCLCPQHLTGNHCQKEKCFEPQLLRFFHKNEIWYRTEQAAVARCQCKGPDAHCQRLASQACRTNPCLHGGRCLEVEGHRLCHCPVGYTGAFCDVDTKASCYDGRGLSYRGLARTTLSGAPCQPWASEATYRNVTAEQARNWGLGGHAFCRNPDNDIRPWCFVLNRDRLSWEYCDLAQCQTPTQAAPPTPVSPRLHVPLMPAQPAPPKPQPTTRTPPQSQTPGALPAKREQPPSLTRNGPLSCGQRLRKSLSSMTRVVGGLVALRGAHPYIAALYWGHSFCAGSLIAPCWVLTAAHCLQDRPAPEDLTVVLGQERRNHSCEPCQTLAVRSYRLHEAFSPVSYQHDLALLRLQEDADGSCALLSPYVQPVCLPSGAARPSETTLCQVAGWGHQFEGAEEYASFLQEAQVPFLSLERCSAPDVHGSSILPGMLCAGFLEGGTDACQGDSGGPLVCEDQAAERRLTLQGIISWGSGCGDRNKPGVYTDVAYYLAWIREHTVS

Large T antigen = Large T antigen (Simian virus 40, UniProt P03070); assay type: functional, Betapolyomavirus macacae;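 also: Confirmatory-stage PubChem screen for compounds that inhibit SV40 T antigen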
[4] = target: Peroxisome proliferator-activated receptor gamma/Nuclear receptor coactivator 2 (Homo sapiens, UniProt P37231); experiment: TR-FRET dose response biochemical High Throughput Screening assay for agonists of the steroid receptor coactivator 2 (SRC-2) recruitment by the peroxisome proliferator-activated receptor gamma (PPAR gamma): non-selective agonists. [Related pubchem assays: 1297, 1032 ]; assay type: functional
[5] = target: Peroxisome proliferator-activated receptor gamma/Nuclear receptor coactivator 1 (Homo sapiens, UniProt P37231); experiment: TR-FRET dose response biochemical High Throughput Screening assay for agonists of the steroid receptor coactivator 1 (SRC-1) recruitment by the peroxisome proliferator-activated receptor gamma (PPAR gamma): non-selective agonists. [Related pubchem assays (depositor defined):AID1300, AID1808, AID504735, AID631]; assay type: protein assay
[6] = target: Peroxisome proliferator-activated receptor gamma/Nuclear receptor coactivator 3 (Homo sapiens, UniProt P37231); experiment: TR-FRET dose response biochemical High Throughput Screening assay for agonists of the steroid receptor coactivator 3 (SRC-3) recruitment by the peroxisome proliferator-activated receptor gamma (PPAR gamma): non-selective agonists. [Related pubchem assays: 1301 (Confirmation screen.), 1048 (Primary screen.)]; assay type: functional
[7] = fluconazole-exposed Candida albicans growth modulators – fluorescence, retest, confirmation (AID 2467); assay type: functional, cell-based
[8] = target: T3, Calpain-2 catalytic subunit (Sus scrofa, UniProt P43367); experiment: m-calpain protease blockers, concentration series – biochemical, fluorogenic peptide substrate, dose response (AID 1420); assay type: functional
T3 sequence (P43367 whole entry): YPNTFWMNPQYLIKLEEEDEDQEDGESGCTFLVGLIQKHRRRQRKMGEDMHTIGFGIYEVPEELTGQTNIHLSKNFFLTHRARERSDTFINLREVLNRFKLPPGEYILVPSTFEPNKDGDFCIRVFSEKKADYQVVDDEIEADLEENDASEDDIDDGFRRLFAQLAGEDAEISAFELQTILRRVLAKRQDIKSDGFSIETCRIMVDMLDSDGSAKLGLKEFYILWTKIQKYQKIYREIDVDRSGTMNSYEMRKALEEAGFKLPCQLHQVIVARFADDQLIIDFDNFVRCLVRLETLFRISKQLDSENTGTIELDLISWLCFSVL

[9] = NIH-3T3 fibroblast cytotoxicity, dose response, cytotoxicity control, cell-based, fluorescence, Alamar Blue, secondary assay (AID 2327); assay type: functional;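 also: NIH-3T3 mouse fibroblasts cultured with fluconazole at 8 µg/mL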
[10] = target: T4, Zinc finger protein mex-5 (Caenorhabditis elegans, UniProt Q9XUB2); experiment: potency of MEX-5 RNA-binding blockers – biochemical, C. elegans, fluorescence polarization, dose response (AID 1960)
T4 sequence (Q9XUB2 whole entry): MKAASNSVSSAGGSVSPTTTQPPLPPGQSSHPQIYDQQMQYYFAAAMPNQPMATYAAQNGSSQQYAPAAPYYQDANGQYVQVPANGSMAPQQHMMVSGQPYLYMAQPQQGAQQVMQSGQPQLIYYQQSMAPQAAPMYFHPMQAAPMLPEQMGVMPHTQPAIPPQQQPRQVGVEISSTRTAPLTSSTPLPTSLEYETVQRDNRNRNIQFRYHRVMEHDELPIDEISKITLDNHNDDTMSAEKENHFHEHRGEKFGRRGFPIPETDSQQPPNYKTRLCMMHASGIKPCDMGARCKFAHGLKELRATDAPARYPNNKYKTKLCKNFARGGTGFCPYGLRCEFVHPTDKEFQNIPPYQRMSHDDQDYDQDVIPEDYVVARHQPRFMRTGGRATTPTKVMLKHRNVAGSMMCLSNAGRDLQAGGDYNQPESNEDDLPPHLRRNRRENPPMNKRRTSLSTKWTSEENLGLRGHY

[11] = target: T5, RNA-binding protein pos-1 (Caenorhabditis elegans, UniProt G5EF15); experiment: disruptors of C. elegans POS-1 RNA interaction – biochemical, fluorescence polarization, dose response (AID 1964);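 also: purified POS-1 fused to maltose binding protein made in E. coli; potency of compounds blocking POS-1 binding to fluorescent RNA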
T5 sequence (G5EF15 whole entry): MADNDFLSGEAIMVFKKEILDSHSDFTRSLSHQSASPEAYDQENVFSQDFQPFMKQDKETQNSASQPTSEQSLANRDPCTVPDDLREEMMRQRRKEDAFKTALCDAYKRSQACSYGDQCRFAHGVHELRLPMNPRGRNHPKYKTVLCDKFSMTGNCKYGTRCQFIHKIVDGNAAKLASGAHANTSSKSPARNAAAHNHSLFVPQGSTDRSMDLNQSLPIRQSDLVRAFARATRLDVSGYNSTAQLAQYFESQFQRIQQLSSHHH

[12] = alpha-synuclein stem-loop luciferase translation blockers – H4 neuroglioma cells, luminescence, confirmation (AID 1988); assay type: functional, cell-based
[13] = Luminescence Cell-Based Dose Response HTS to Identify Inhibitors of 5'UTR Stem-Loop Driven Prion Protein mRNA Translation in H4 Neuroglioblastoma Cells. [Related pubchem assays: 1827 (Project Summary), 1813 (Primary HTS)]; assay type: functional

Chain of Peroxisome proliferator-activated receptor gamma/Nuclear receptor coactivator 3 (P37231 whole entry): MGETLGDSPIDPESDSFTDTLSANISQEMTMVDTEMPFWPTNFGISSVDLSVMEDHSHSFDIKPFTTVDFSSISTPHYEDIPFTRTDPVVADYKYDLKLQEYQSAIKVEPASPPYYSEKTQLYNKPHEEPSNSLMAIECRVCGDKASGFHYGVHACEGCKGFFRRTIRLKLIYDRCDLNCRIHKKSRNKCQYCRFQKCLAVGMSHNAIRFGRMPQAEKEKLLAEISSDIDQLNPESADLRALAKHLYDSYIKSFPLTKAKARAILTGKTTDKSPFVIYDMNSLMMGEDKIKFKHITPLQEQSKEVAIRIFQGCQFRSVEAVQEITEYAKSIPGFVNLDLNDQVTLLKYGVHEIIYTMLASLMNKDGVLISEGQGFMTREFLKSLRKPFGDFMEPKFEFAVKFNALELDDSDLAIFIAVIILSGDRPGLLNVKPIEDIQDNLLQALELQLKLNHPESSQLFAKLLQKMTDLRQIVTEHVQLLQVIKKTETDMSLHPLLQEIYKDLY
Chain of Peroxisome proliferator-activated receptor gamma/Nuclear receptor coactivator 3 (Q9Y6Q9 whole entry, further chain): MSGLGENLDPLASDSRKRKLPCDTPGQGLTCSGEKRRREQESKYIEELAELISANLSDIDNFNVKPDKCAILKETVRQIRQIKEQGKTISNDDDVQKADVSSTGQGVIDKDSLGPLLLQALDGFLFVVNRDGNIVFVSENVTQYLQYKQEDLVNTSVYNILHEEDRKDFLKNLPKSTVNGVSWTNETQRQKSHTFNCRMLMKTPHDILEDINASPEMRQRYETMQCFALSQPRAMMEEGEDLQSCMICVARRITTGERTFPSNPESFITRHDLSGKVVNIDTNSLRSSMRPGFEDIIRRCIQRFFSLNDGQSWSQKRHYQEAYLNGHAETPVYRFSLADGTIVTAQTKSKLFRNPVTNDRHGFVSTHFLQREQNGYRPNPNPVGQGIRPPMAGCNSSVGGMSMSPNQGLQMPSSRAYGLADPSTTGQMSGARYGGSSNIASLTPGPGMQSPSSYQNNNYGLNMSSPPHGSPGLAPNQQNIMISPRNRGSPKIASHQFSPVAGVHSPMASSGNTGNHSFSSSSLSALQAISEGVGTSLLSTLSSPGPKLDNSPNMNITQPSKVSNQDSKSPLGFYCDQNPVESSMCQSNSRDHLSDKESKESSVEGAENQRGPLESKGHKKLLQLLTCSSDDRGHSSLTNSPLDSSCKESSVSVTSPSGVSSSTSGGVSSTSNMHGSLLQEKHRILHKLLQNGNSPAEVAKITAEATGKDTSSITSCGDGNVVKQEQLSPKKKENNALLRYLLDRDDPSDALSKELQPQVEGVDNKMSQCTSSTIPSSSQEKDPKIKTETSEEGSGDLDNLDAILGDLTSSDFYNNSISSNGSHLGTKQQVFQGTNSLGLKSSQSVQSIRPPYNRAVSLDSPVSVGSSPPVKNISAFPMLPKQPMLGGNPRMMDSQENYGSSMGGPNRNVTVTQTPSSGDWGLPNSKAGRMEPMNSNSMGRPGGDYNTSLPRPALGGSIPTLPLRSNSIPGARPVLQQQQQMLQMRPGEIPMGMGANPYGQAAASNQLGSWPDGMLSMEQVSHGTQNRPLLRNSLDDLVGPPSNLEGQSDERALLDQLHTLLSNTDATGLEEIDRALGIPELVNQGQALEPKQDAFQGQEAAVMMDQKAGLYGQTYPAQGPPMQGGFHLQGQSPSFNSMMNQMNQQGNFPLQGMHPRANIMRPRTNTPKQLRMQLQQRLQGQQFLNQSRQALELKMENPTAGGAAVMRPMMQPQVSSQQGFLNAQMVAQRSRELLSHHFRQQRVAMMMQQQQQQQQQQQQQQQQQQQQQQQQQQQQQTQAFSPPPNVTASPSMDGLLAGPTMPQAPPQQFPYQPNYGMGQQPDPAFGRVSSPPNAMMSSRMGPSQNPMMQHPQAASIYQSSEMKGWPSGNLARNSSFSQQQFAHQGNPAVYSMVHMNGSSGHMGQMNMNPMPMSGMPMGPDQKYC
Chain of Peroxisome proliferator-activated receptor gamma/Nuclear receptor coactivator 1 (P37231 whole entry): as the sequence (P37231 whole entry) above
Chain of Peroxisome proliferator-activated receptor gamma/Nuclear receptor coactivator 1 (Q15788 whole entry, further chain): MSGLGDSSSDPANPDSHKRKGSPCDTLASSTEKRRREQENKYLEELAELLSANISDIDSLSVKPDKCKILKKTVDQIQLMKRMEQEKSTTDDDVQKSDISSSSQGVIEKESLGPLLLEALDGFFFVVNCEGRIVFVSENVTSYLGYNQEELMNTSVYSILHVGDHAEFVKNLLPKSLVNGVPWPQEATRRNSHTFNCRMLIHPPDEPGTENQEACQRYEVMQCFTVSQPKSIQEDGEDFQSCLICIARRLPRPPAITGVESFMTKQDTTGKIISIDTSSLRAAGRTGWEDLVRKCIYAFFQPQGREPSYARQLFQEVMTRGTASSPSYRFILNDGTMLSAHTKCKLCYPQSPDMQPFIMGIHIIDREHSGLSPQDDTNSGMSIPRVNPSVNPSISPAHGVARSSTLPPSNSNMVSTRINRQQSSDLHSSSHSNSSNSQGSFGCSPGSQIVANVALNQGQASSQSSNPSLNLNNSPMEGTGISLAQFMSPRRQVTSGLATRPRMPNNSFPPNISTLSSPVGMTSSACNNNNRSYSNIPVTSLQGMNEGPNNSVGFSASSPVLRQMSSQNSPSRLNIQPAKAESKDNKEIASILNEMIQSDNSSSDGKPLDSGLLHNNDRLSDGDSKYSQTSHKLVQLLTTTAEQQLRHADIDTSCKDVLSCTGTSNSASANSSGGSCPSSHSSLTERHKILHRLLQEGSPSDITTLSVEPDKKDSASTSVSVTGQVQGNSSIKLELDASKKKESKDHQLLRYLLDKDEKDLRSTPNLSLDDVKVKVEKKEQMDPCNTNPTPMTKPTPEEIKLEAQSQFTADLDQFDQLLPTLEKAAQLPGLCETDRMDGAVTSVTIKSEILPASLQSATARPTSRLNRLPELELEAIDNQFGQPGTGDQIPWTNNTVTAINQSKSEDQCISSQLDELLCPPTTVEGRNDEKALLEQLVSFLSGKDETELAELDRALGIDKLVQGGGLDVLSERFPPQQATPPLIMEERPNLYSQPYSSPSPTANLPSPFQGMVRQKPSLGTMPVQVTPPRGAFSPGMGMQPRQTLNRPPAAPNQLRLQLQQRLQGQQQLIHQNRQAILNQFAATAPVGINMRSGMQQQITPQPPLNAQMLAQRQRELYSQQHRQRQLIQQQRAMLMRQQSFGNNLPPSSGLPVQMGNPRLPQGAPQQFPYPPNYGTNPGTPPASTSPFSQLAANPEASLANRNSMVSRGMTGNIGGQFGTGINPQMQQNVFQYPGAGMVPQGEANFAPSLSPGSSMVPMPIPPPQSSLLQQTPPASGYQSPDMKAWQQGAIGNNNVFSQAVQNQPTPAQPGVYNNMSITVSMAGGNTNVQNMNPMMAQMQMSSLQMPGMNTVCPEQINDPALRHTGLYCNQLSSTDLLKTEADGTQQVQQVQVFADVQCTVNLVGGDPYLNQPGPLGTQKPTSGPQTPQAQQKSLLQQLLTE
Chain of Large T antigen (P03070 whole entry): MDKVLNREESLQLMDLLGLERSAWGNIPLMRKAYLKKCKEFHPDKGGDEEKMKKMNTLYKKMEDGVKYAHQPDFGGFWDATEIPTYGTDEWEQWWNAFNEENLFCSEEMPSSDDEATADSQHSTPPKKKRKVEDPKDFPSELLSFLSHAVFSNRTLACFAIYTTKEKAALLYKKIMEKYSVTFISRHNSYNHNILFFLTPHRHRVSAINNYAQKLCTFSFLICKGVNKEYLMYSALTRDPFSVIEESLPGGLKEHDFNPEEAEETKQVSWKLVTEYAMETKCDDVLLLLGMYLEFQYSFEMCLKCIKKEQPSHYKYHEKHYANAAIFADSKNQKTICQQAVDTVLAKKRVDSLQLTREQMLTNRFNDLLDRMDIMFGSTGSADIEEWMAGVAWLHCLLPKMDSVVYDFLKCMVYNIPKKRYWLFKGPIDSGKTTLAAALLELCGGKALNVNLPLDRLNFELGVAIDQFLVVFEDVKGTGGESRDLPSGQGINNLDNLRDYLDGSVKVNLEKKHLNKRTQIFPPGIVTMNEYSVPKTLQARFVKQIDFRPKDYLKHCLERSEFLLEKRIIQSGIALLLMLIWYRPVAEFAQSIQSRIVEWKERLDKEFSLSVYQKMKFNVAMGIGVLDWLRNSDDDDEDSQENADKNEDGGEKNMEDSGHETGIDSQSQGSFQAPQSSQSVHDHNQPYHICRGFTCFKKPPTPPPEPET

O=[N+]([O-])c1cccc(-c2nnc(C3CC3)o2)c1
EC50 [1]: 3.76 µM (active)

COc1ccc(-c2nc(C[S+]([O-])CC(=O)NCCc3ccc(C)cc3)c(C)o2)cc1OC (stereo not given)
EC50 [2]: > 112 µM (not active)
EC50 [3]: > 112 µM (not active)

Cc1ccc(-c2nc(C[S+]([O-])CC(=O)NCCCN3CC(C)CC(C)C3)c(C)o2)cc1 (stereo not given)
EC50 [2]: > 112 µM (not active)
EC50 [3]: > 112 µM (not active)

CCCn1c(=O)c2ccccc2n2c(SCCOc3ccccc3)nnc12
EC50 [1]: 5.96 µM (active)

O=C(OCC(=O)c1ccc(Cl)s1)c1ccc2ccccc2n1
IC50 (Coagulation factor XII): > 50 µM (inactive)

CN(Cc1ccccc1)c1ccc(S(=O)(=O)N2CCOCC2)cn1
EC50 [2]: > 112 µM (not active)
EC50 [3]: > 112 µM (not active)

Cc1ccc(S(=O)(=O)N2CCCOC2CNC(=O)C(=O)NCCc2c[nH]c3ccccc23)cc1 (stereo not given)
IC50 (Large T antigen): 86.8 µM (active)

COC(=O)c1c(N=C(S)Nc2ccccc2Cl)sc(C)c1C
EC50 [4]: 28.6 µM (not active)
EC50 [5]: 84.9 µM (inactive)
EC50 [6]: > 79.4 µM (not active)

COC(=O)c1sccc1NC(=O)Nc1cccc(C)c1
EC50 [2]: 0.21 µM (active)
EC50 [3]: 2.5 µM (active)

O=S(=O)(Nc1ccccc1)c1ccc(-c2csnn2)cc1
IC50 (Coagulation factor XII): > 50 µM (inactive)

O=C(CN1C(=O)c2cccc3cccc1c23)NCc1ccc2c(c1)OCO2
IC50 (Coagulation factor XII): > 50 µM (inactive)

c1ccc(-c2nc(-c3cccs3)[nH]c2-c2ccccc2)cc1
EC50 [4]: 32.3 µM (not active)
EC50 [5]: 42.6 µM (inactive)
EC50 [6]: > 79.4 µM (not active)

Fc1cccc(Nc2c3c(nc4ccccc24)CCC3)c1
EC50 [1]: 1.19 µM (active)

CCOC(=O)c1ccc2c(c1)nc(S)n2CC
EC50 [4]: 15.7 µM (not active)
EC50 [5]: 17.5 µM (inactive)
EC50 [6]: > 79.4 µM (not active)

Cn1c(=O)cc(SCC(=O)NCC2CCCO2)c2ccccc21 (stereo not given)
EC50 [4]: > 79.4 µM (not active)
EC50 [5]: > 79.4 µM (inactive)
EC50 [6]: > 79.4 µM (not active)

O=C(CSc1cccc[n+]1[O-])c1cc(Cl)ccc1Cl
EC50 [7]: > 38 µM (not active)
IC50 [8]: > 50 µM (not active)
EC50 [9]: 35.8 µM (active)

CCOc1ccc(N2C(=O)S/C(=C\c3cccn3C)C2=O)cc1
EC50 [10]: > 300 µM (not active)
EC50 [11]: > 300 µM (inconclusive)
EC50 [2]: > 112 µM (not active)
EC50 [3]: > 112 µM (not active)

COc1ccc(Cl)cc1N=C(N)Nc1nc(C)cc(C)n1
EC50 [1]: 2.11 µM (active)

c1ccc2nc(-c3nc4ccccc4[nH]3)ccc2c1
EC50 [12]: 9.4 µM (active)
EC50 [13]: 11.1 µM (inconclusive)
EC50 [2]: 0.49 µM (active)
EC50 [3]: 2.16 µM (active)

CCOc1ccccc1-c1nnc(S)o1
EC50 [4]: 35.6 µM (not active)
EC50 [5]: > 2.94 µM (inactive)
EC50 [6]: > 79.4 µM (not active)

COc1ccc(O)c(CN2CCCC(C(=O)c3sccc3C)C2)c1 (stereo not given)
EC50 [1]: 3.35 µM (active)

CSCCNC(=O)c1ccc(OC2CCN(CCc3ccccc3)CC2)cc1
EC50 [1]: 0.473 µM (active)

O=C(O)c1ccc(N=C(NS(=O)(=O)c2ccc(Cl)cc2)c2ccccc2)cc1
IC50 (Coagulation factor XII): > 50 µM (inactive)

Cc1ccsc1/C=N/Nc1nc(O)nnc1C
EC50 [2]: 0.519 µM (active)
EC50 [3]: 5.47 µM (active)

C(=N\c1ccc(N2CCOCC2)cc1)/c1c[nH]c2ccccc12
IC50 (Large T antigen): 4.34 µM (active)

COc1cc(/C=N/Nc2nc3ccccc3[nH]2)cc(OC)c1O
IC50 (Large T antigen): 7.09 µM (active)

CCOC(=O)[C@H]1O[C@@H]1C(=O)N[C@@H](CC(C)C)C(=O)NCCC(C)C [ALOXISTATIN]
IC50 [8]: 1.77 µM (active)
